Active and inactive are the calls of the source. The calls are words filed in the database; no cut-off is given here.
Experiments:
Lactuca sativa [1] = experiment: Phytotoxicity against Lactuca sativa (lettuce) assessed as reduction of seed germination measured daily for 5 days relative to control; type: functional, organism-based
Lactuca sativa [2] = experiment: Phytotoxicity against Lactuca sativa (lettuce) assessed as reduction of shoot elongation at 10^-7 M measured daily for 5 days relative to control; type: functional, organism-based
Lactuca sativa [3] = experiment: Phytotoxicity against Lactuca sativa (lettuce) assessed as reduction of seed germination at 10^-5 M measured daily for 5 days relative to control; type: functional; set-up: scale not given: the % may be the effect or the level left
Lactuca sativa [4] = experiment: Phytotoxicity against Lactuca sativa (lettuce) assessed as reduction of root elongation at 10^-4 M measured daily for 5 days relative to control; type: functional; set-up: scale not given: the % may be the effect or the level left
Lactuca sativa [5] = experiment: Stimulation of root elongation in Lactuca sativa (lettuce) at 10^-7 M measured daily for 5 days relative to control; type: organism-based; conditions: in vivo, 120 h, 0.1 µM

| Activity (Lactuca sativa [5]) | Structure (SMILES) | Activity (Lactuca sativa [1]) | Activity (Lactuca sativa [2]) | Activity (Lactuca sativa [3]) | Activity (Lactuca sativa [4]) |
| --- | --- | --- | --- | --- | --- |
| – | O=C(O)CCc1ccc(Oc2ccc(CCC(=O)O)cc2)cc1 [APTENIOL A] | Dose-dependent effect | inactive | 25% | 40% |
| 20% | COc1cc(CCC(=O)O)ccc1Oc1ccc(CCC(=O)O)cc1 [APTENIOL B] | Dose-dependent effect | – | 25% | 20% |
| – | COC(=O)CCc1ccc(Oc2ccc(CCC(=O)OC)cc2OC)cc1 [APTENIOL C] | Dose-dependent effect | inactive | 25% | inactive |
| – | COc1cc(CCC(=O)O)ccc1Oc1c(OC)cc(CCC(=O)O)cc1OC [APTENIOL D] | Dose-dependent effect | – | 25% | 20% |
| 20% | COc1cc(CCC(=O)O)cc(OC)c1Oc1c(OC)cc(CCC(=O)O)cc1OC [APTENIOL E] | Dose-dependent effect | – | 25% | 20% |
| – | COc1cc(CCC(=O)O)ccc1Oc1ccccc1CCC(=O)O [APTENIOL F] | Dose-dependent effect | inactive | 25% | 20% |

— ChEMBL document CHEMBL3046130, “Apteniols AF, oxyneolignans from the leaves of Aptenia cordifolia” (Tetrahedron, 2005)
